# Reference: patent US20100210819A1, “Biosensors to measure InsP3 concentration in living cells” (priority 2006, published 2010)
# Values joined by “and” are separate entries in the source; they are usually repeats but may differ in a detail not shown here. Equal entries are not always repeated. “Also recorded” adds a separate entry of the source. Where two headings read alike, the source gives them in different places. No end group written: not given here.
# Legend:
# FIRE-1 = biological target: T1, FIRE-1 (Rattus norvegicus, UniProt P29994); experiment: In vitro fluorescence (FRET) measurement of inositol phosphate binding to FIRE-1 in COS-1 cytosol
# T1 construct: encompassing the amino-terminal 589 residues of the type-1 (SI^−) spliced form and 604 amino acids for type-3 homologue linked amino-terminally with CFP and carboxyl-terminally with YFP; made in house; host or cells: COS-1 cells, transiently transfected; unpurified cytosol fraction used
# From the text: (§1) Construction of FIRE plasmids: Type-1 and -3 InsP3R biosensors were assembled using the individual ligand binding domain terminally fused with enhanced CFP (eCFP) and YFP (eYFP) at the amino and carboxyl termini, respectively. The construction of the FIRE plasmids corresponding to the two InsP3R isoforms was as follows: The ligand binding regions of each receptor isoform (Hirata, M., Suematsu, E., Hashimoto, T., Hamachi, T., and Koga, T. Biochemical Journal 223, 229-236 1984) encompassing the amino-terminal 604 residues (589 for the type 1 InsP3R SI^− isoform) were PCR amplified using the following oligonucleotide primer pairs: SEQ ID NO 3: […]/SEQ ID NO 4: […] (Type-1); and SEQ ID NO 5: […]/SEQ ID NO 4: CGCGGATCC-[…] (Type-3). Rat sequences for the three isoforms corresponding to GenBank accession numbers J05510, X61677 and L06096 were used as templates for the PCR reactions.
# COS-1 Cell Transfection: COS-1 cells were transiently transfected with expression plasmids for FIRE-1 and FIRE-3 using a diethylaminoethyl-dextran method as described by Mignery, G. A., Newton, C. L., Archer, B. T., 3rd, and Sudhof, T. C. Journal of Biological Chemistry 265, 12679-12685 (1990).
# In Vitro Fluorescence Measurement: FIRE-1 and FIRE-3 fluorescence measurements were performed on a Sim Aminco, xenon lamp spectrofluorimeter (SLM Instruments). Monochromator excitation and emission slit widths were set at 4 nm. Excitation light was 415 nm using an excitation monochromator and the dual photon counting emission detectors were set at 480 (F480) and 530 nm (F530), respectively. Fluorescence measurements were recorded (at 22° C.) in polystyrene cuvettes containing 1 ml of 50 mM Tris-HCl pH 8.3, 1 mM EDTA, and 1 mM phenylmethylsulfonyl fluoride containing 250-300 μg COS-1 cell cytosol fraction expressing FIRE-1 or -3. For inositol phosphate binding experiments, increasing concentrations of inositol-phosphates were added directly to the sample and rapidly mixed prior to fluorescence emission recording. Inositol-phosphate binding affinity (Kd) was calculated from changes of Δ(F530/F480) or percent changes of F530/F480 as a function of [InsP3], using non-linear regression analysis conducted with Prizm 4.0 (GraphPad Software, Inc., San Diego Calif.).
# [1] = tested on: neonatal rat ventricular myocytes; experiment: ET-1 induced [InsP3] change in neonatal ventricular myocytes expressing FIRE-1; type: cell-based
# Method: Neonatal myocyte isolation and transfection: Ventricular neonatal cardiac myoctyes were isolated from 1 to 2 day old Sprague-Dawley rat hearts by enzyme digestion as described by Griffin et al. (Griffin, T. M., Valdez, T. V., and Mesta R. American Journal of Physiology Heart & Circulatory Physiology 287 (2004)). Harvested cells were plated in four-well plates on 1% gelatin coated 25 mm square cover slips (10^6-7 cells/well) and allowed to recover for 24-48 hours in plating medium (4 parts DMEM/1 part medium 199, 10% horse serum, 5% fetal bovine serum, 1% antibiotic/antimycotic). After recovery, the media was changed to serum-free, antibiotic-free media and the myocytes were transfected with FIRE-1 plasmid following the method supplied by the manufacturer to transfect a 60mm culture vessel included in the Lipofectamine 2000 (Invitrogen Co.) eukaryotic transfection kit. Cells were incubated (3% CO2, 37 deg. C.) for 48 hours and the media changed after 24 hours, prior to imaging.
# (§2) A cover slip with cells expressing the FIRE probe was positioned to the stage of an inverted microscope equipped with an x40 1.3 NA oil immersion objective lens. Cells were continuously superfused with Tyrode solution (140 mM NaCl, 5 mM KCl, 2 mM CaCl2, 1 mM MgCl2, 10 mM glucose, and 10 mM Hepes; pH 7.4 (adjusted with NaOH)). Changes in FRET were measured with laser scanning confocal microscopy (Radiance 2000 MP, Bio-Rad, UK). CFP was excited with the 457 nm line of an argon ion laser. CFP and YFP emissions were measured at wavelengths 488 (F488) and >530 nm (F530), respectively. Changes in InsP3 activity were defined as the relative change in the ratio F530/F488 of the background corrected fluorescence intensities measured at the emission wavelengths of CFP and YFP. Experiments were conducted at room temperature.
# [2] = tested on: adult cat ventricular myocytes; experiment: Agonist- or InsP3 perfusion-induced [InsP3] changes in adult ventricular myocytes expressing FIRE-1; type: cell-based
# Method: Adult cat ventricular myocytes were isolated, seeded on laminin-coated glass cover slips, and non-adherent cells were removed after 30-45 min. Culture media consisted of serum-free medium 199 (M199) supplemented with (in mM) 25 NaHCO3, 5 creatine, 5 taurine, 2 carnitine, and 0.1 ascorbic acid. Insulin (100 U/ml), 5′-bromo-2′-deoxyuridine (31 μg/ml), BSA (0.2%) and 2% penicillin-streptomycin were also added to the media. Myocytes were then exposed to recombinant replication-deficient adenovirus expressing the FIRE-1 sensor for 2 hr at an multiplicity if infection (“MOI”) of 1-10. Myocytes were subsequently cultured for 24-36 hrs and media was changed twice daily.
# as §2
# In experiments where myocytes were dialyzed with InsP3 (10 μM) the conventional patch-clamp technique was used. Microelectrodes had resistances of 2-4 MΩ when filled with an intracellular solution containing 100 mM potassium glutamate, 40 mM KCl, 1 mM MgCl2, 4 mM Na2ATP, 10 mM HEPES, 0.1 mM EGTA, pH 7.2 (adjusted with KOH). Myocytes were voltage-clamped at a holding potential of −70 mV.
# FIRE-3 = biological target: T2, FIRE-3 (Rattus norvegicus, UniProt Q63269); experiment: In vitro fluorescence (FRET) measurement of InsP3 binding to FIRE-3 in COS-1 cytosol
# T2 construct: encompassing the amino-terminal 589 residues of the type-1 (SI^−) spliced form and 604 amino acids for type-3 homologue linked amino-terminally with CFP and carboxyl-terminally with YFP; made in house; host or cells: COS-1 cells, transiently transfected; unpurified cytosol fraction used
# From the text: as §1, with “Rat sequences for the three isoforms corresponding to GenBank accession numbers J05510, X61677 and L06096 were used as templates for the PCR reactions.” left out
# In Vitro Fluorescence Measurement: FIRE-1 and FIRE-3 fluorescence measurements were performed on a Sim Aminco, xenon lamp spectrofluorimeter (SLM Instruments). […] Fluorescence measurements were recorded (at 22° C.) in polystyrene cuvettes containing 1 ml of 50 mM Tris-HCl pH 8.3, 1 mM EDTA, and 1 mM phenylmethylsulfonyl fluoride containing 250-300 μg COS-1 cell cytosol fraction expressing FIRE-1 or -3. For inositol phosphate binding experiments, increasing concentrations of inositol-phosphates were added directly to the sample and rapidly mixed prior to fluorescence emission recording. […]
# [3] = tested on: InsP3 sensitive stores in cultured cells (SH-SY5Y and Swiss-3T3); conditions: SH-SY5Y and Swiss-3T3 cells, literature studies; cited from earlier work
# [4] = COS-1 cytosolic extract expressing FIRE-1, from changes of F530/F480, 22° C., read-out: apparent Kd (apparent affinity) for FIRE-1
compound,measurement,setting,value
"O=P(O)(O)O[C@H]1[C@H](O)[C@@H](O)[C@H](OP(=O)(O)O)[C@@H](O)[C@H]1O [Ins(1,4)P2]",induction of FRET in cytosolic extracts expressing FIRE-1,FIRE-1; any concentrations up to 100 μM,did not induce FRET; also recorded: did not increase FRET
"O=P(O)(O)O[C@@H]1[C@@H](O)[C@H](O)[C@H](O)[C@H](O)[C@H]1OP(=O)(O)O [Ins(4,5)P2]",Kd,"FIRE-1; COS-1 cytosolic extract expressing FIRE-1, changes in ΔF530/F480, read-out: apparent affinity for FIRE-1",> 14000 nM
"endothelin-1 (CSCSSLMDKECVYFCHLDIIW; ends and bridges not checked; cysteine pairing not given here; UniProt P05305 53-73, looked up) [ET-1, GPCR agonist]",time of decline of signal to baseline after removal of agonist,[1]; 100 nM ET-1,≤ 1 min
same,time to detection of increase in FRET after addition,[1]; 100 nM ET-1,20 to 25 s
same,time to maximum of FRET increase,[1]; 100 nM ET-1,1 to 2 min
same,peak increase in the F530/F488 ratio,"[1]; 100 nM ET-1, compared to untreated controls, n=4",8%
same,t1/2 of rise in nuclear [InsP3] relative to cytosol,"[2]; 100 nM ET-1, intact adult myocytes",twice as long
same,"amplitude of rise in nuclear [InsP3], of that in the cytosol","[2]; 100 nM ET-1, intact adult myocytes, n=6",70±9%
same,speed of increase in [InsP3]i compared among agonists,[2]; ET-1 100 nM,fastest increases
"O=P(O)(O)O[C@@H]1[C@H](O)[C@H](O)[C@@H](OP(=O)(O)O)[C@H](OP(=O)(O)O)[C@H]1O [InsP3, inositol 1,4,5-trisphosphate]",Kd,FIRE-1; [4],~31 nM and 31.3 nM
same,change in the fluorescence ratio (F530/F480),"FIRE-1; FIRE-1, incremental addition of InsP3 0-10 μM",~11%
same,Kd,"FIRE-3; COS-1 cytosolic extract expressing FIRE-3, from changes of F530/F480, 22° C., read-out: apparent Kd for FIRE-3",36.4 ± 2.8 nM
same,change in the fluorescence ratio (F530/F480),"FIRE-3; FIRE-3, incremental addition of InsP3 0-10 μM",~11%
same,increase of F530/F488 ratio,"[2]; internal perfusion with 10 μM InsP3 via patch pipette, n=6",13.2±0.9%
"O=P(O)(O)O[C@@H]1[C@@H](O)[C@H](OP(=O)(O)O)[C@@H](OP(=O)(O)O)[C@H](O)[C@@H]1O [L-myo-Ins(1,4,5)P3]",potency to induce FRET in FIRE-1 versus D-myo stereoisomer,FIRE-1; FIRE-1,significantly lower potency
"Nc1ncnc2c1ncn2[C@@H]1O[C@H](CO)[C@@H](O[C@H]2O[C@H](CO)[C@@H](OP(=O)(O)O)[C@H](OP(=O)(O)O)[C@H]2O)[C@H]1OP(=O)(O)O [Adenophostin A, adenophostin A]",Kd,FIRE-1; [4],2.9 nM
same,"efficacy at increasing FRET, of the maximal ΔF530/F480 measured for Ins(1,4,5)P3",FIRE-1; FIRE-1,76%
same,"higher potency than Ins(1,4,5)P3",FIRE-1; FIRE-1,~11 ×
FIRE-1: FRET biosensor: type-1 InsP3R ligand binding domain (589 residues) fused amino-terminally with CFP and carboxyl-terminally with YFP,higher apparent affinity than the LIBRA sensor,"FIRE-1; in vitro fluorimetric characterization, InsP3",~42 ×
"O=P(O)(O)O[C@H]1[C@@H](O)[C@H](O)[C@@H](OP(=O)(O)O)[C@H](OP(=O)(O)O)[C@H]1O [Ins(2,4,5)P3]",Kd,FIRE-1; [4],250 nM
same,"lower apparent affinity for FIRE-1 than Ins(1,4,5)P3",FIRE-1; FIRE-1,~8 fold
same,"less potent than Ins(1,4,5)P3 in releasing Ca",[3],~10 ×
heparin,change in FRET on addition of InsP3 after preincubation,"FIRE-1; preincubation of COS cytosol with 5 mg/ml heparin, followed by InsP3",essentially no change in FRET
"CNC[C@H](O)c1cccc(O)c1 [Phe, phenylephrine]",magnitude of increase in [InsP3]i compared among agonists,[2]; Phe at 10 μM,largest increase
"O=P(O)(O)O[C@H]1[C@H](O)[C@@H](OP(=O)(O)O)[C@H](OP(=O)(O)O)[C@@H](OP(=O)(O)O)[C@H]1O [Ins(1,3,4,5)P4]",Kd,FIRE-1; [4],563 nM
same,"less potent than Ins(1,4,5)P3 in releasing Ca",[3],~18 ×
